For one assay, the system named is T24 cells. In words: Antiproliferative activity, sulforhodamine B assay, T24 bladder cancer cells. The assay is classed as cell-based, human. The conditions noted are these: SRB, mean (±SEM). How it is done: (§1) In vitro antiproliferative activity of the compounds was determined in cells derived from bladder cancer (T24) and prostate cancer (LNCaP). The cells were incubated in the presence of the compounds for 48 h. The antiproliferative activity was determined using the sulforhodamine B assay. The results were expressed as GI50, which is the drug concentration resulting in a 50% reduction of cellular net growth when compared with the values of untreated control cells. The standard anticancer drug cisplatin was used as a positive control, and furoxan 3 and 11a were also included as ⋅NO donor reference compounds. The results are summarized in Table 2 for the Ugi product 7a, Ugi-Fx (8a) and 8b–g Ugi-furoxan derivatives, and GBB product 10 and 12a–e GBB-furoxan derivatives.
(§2) The T24 cells were grown in McCoy’s 5A (Biological Industries) supplemented with 10% FBS (Capricorn Scientific). The cells were passaged twice per week, and the culture medium was changed with the same frequency. The LNCaP cells were maintained in RPMI media (Biological Industries) supplemented with 10% FBS (Capricorn Scientific) and 10% of its own conditioned medium (complete media). The cells were passaged once per week, and the medium was changed with the same frequency. The HaCaT cells (immortalized human keratinocytes) were cultured in Dulbecco’s modified Eagle medium (Biological Industries) supplemented with 10% FBS (Capricorn Scientific). The cells were passaged twice per week, and the medium was changed with the same frequency. The cell cultures were maintained under a humidified 5% CO2 atmosphere at 37 °C.
(§3) For viability assays, cells were treated with a 0.25% Trypsin–0.05% EDTA solution and plated in 96-well plates in complete medium the day before the experiment. The cells were seeded in a 96-well plate at densities of 8 × 10^3 cells per well for T24 cells, 12.5 × 10^3 cells per well for LNCaP cells, and 10 × 10^3 cells per well for HaCaT cells. The cultures were allowed to attach for 24 h in a humidified 5% CO2 atmosphere at 37 °C. Then, the cells were treated with increasing concentrations of the compounds (0.4–100.0 µM) prepared in complete medium using stock solutions in DMSO and were kept for 48 h in a CO2 incubator. Wells with only media or 0.5% DMSO were added as controls. The antiproliferative activity of the compounds was assayed using the SRB method in at least three independent experiments.

Another assay relates to LNCaP cells. Description: Antiproliferative activity, sulforhodamine B assay, LNCaP prostate cancer cells. The assay is classed as cell-based, human. Conditions: 48 h, SRB, mean (±SEM). The procedure:
as §1, §2, §3

Another assay relates to HaCaT cells. Description: Cytotoxicity in non-cancer keratinocytes, sulforhodamine B assay. In kind it is cell-based. The conditions noted are these: HaCaT human keratinocytes, 0.4–100 µM, SRB; mean (±SEM). The procedure:
As a first approximation of the safety profile of the synthesized compounds and to determine the cytotoxic selectivity against cancer cells, the antiproliferative activity in non-cancer cells was studied. This evaluation was carried out in human keratinocyte HaCaT cells with 0.4–100 µM of the test compounds using the sulforhodamine B assay. The selectivity index (SI) was calculated for these compounds by dividing the GI50 for HaCaT by the GI50 for each cancer cell line. […] The derivatives Ugi-Fx (8a) and 12e stand out, with selectivity indices of 14.5 and 10.8, respectively. […] Concerning the LNCaP prostate cancer cell line, as for the reference drug, no selectivity was observed. […] Therefore, this new GBB-furoxan derivative can be a starting point in the design of new structures with improved selectivity.
as §2, §3

`Cc1ccc(N(C(=O)c2cccc(O)c2)C(C(=O)NC(C)(C)C)c2ccccc2)cc1` (stereo not drawn) [7a, N-(1-(tert-butylaminocarbonyl)-1-phenylmethyl)-N-(4-methylphenyl)-3-hydroxyphenyl carboxamide]: the GI50 is greater than 100000 nM in the assay with T24 cells (Homo sapiens, T-24, 48 h) and greater than 100 µM in the assay on LNCaP cells (Homo sapiens).
With `Cc1ccc(N(C(=O)c2ccccc2Oc2no[n+]([O-])c2S(=O)(=O)c2ccccc2)C(C(=O)NC(C)(C)C)c2ccccc2)cc1` (stereo not drawn) [8b, N-[1-(tert-butylaminocarbonyl)-1-phenylmethyl]-N-(4-methylphenyl)-2-[3-(phenylsulfonyl)-[1,2,5]oxadiazol-4-yl N2-oxide]oxyphenylcarboxamide], the GI50 in the assay on T24 cells (Homo sapiens, T-24, 48 h) was determined as 1830 nM; with LNCaP cells (Homo sapiens) it was 13.3 µM; with HaCaT cells, 3.78 µM.
Taken in the same sequence, the figures for `Cc1ccc(N(C(=O)c2ccc(Oc3no[n+]([O-])c3S(=O)(=O)c3ccccc3)cc2)C(C(=O)NC(C)(C)C)c2ccccc2)cc1` (stereo not drawn) [8c, N-[1-(tert-butylaminocarbonyl)-1-phenylmethyl]-N-(4-methylphenyl)-4-[3-(phenylsulfonyl)-[1,2,5]oxadiazol-4-yl N2-oxide]oxyphenylcarboxamide] were 2180 nM, 18.8 µM and 4.62 µM.
As for `Cc1ccc(N(CC(=O)NC(C)(C)C)C(=O)c2cccc(Oc3no[n+]([O-])c3S(=O)(=O)c3ccccc3)c2)cc1` [8d, N-(1-(tert-butylaminocarbonyl)methyl)-N-(4-methylphenyl)-3-[3-(phenylsulfonyl)-[1,2,5]oxadiazol-4-yl N2-oxide]oxy phenylcarboxamide], the GI50 in the assay on T24 cells (Homo sapiens, T-24, 48 h) was 2100 nM; in the assay with LNCaP cells (Homo sapiens) it was 21.8 µM; in the assay on HaCaT cells, 9.99 µM.
`CCCCN(C(=O)c1cccc(Oc2no[n+]([O-])c2S(=O)(=O)c2ccccc2)c1)C(C(=O)NC(C)(C)C)c1ccccc1` (stereo not drawn) [8e, N-(1-(tert-butylaminocarbonyl)-1-phenylmethyl)-N-(butyl)-3-[3-(phenylsulfonyl)-[1,2,5]oxadiazol-4-yl N2-oxide]oxyphenylcarboxamide]: the concentration for 50% growth inhibition (GI50) is 1530 nM in the assay with T24 cells (Homo sapiens, T-24, 48 h); 21.8 µM in the assay on LNCaP cells (Homo sapiens); 11.8 µM with HaCaT cells.
Take `CCCCN(CC(=O)NC(C)(C)C)C(=O)c1cccc(Oc2no[n+]([O-])c2S(=O)(=O)c2ccccc2)c1` [8f, N-(1-(tert-butylaminocarbonyl)methyl)-N-(butyl)-3-[3-(phenylsulfonyl)-[1,2,5]oxadiazol-4-yl N2-oxide]oxyphenylcarboxamide]: the GI50 in the assay with T24 cells (Homo sapiens, T-24, 48 h) was found to be 2860 nM; in the assay with LNCaP cells (Homo sapiens), 29.9 µM; in the assay on HaCaT cells it was 11.8 µM.
Taken in the same sequence, the figures for `Cc1ccc(N(C(=O)c2ccccc2)C(C(=O)NC(C)(C)C)c2cccc(Oc3no[n+]([O-])c3S(=O)(=O)c3ccccc3)c2)cc1` (stereo not drawn) [8g, N-(1-(tert-butylaminocarbonyl)-1-3-[3-(phenylsulfonyl)-[1,2,5]oxadiazol-4-yl N2-oxide]oxyphenylmethyl)-N-(4-methylphenyl)-phenylcarboxamide] were 1700 nM, 36.7 µM and 4.99 µM.
With `O=Cc1cccc(Oc2no[n+]([O-])c2S(=O)(=O)c2ccccc2)c1` [11a, reference compound], the GI50 in the assay on T24 cells (Homo sapiens, T-24, 48 h) was 7080 nM; in the assay with LNCaP cells (Homo sapiens) it was 24.5 µM; in the assay on HaCaT cells it was 7.83 µM.
Taken in the same sequence, the figures for `CC(C)(C)Nc1c(-c2cccc(Oc3no[n+]([O-])c3S(=O)(=O)c3ccccc3)c2)nc2ccccn12` [12a, 4-(3-(3-(tert-butylamino)imidazo[1,2-a]pyridin-2-yl)phenoxy)-3-(phenylsulfonyl)-1,2,5-oxadiazole 2-oxide] were 1760 nM, 24.7 µM and 7.44 µM.
Turning to `CC(C)(C)Nc1c(-c2ccccc2Oc2no[n+]([O-])c2S(=O)(=O)c2ccccc2)nc2ccccn12` [12b, 4-(2-(3-(tert-butylamino)imidazo[1,2-a]pyridin-2-yl)phenoxy)-3-(phenylsulfonyl)-1,2,5-oxadiazole 2-oxide], in the assay with T24 cells (48 h), the “GI50 T24” value is “sub-micromolar range”. For the same compound, the GI50 in the assay with T24 cells (Homo sapiens, T-24, 48 h) turned out to be 850 nM; in the assay with LNCaP cells (Homo sapiens), 7.7 µM; in the assay on HaCaT cells it was 3.11 µM.
On to `CC(C)(C)Nc1c(-c2ccc(Oc3no[n+]([O-])c3S(=O)(=O)c3ccccc3)cc2)nc2ccccn12` [12c, 4-(4-(3-(tert-butylamino)imidazo[1,2-a]pyridin-2-yl)phenoxy)-3-(phenylsulfonyl)-1,2,5-oxadiazole 2-oxide], for which the GI50 came out at 2990 nM in the assay with T24 cells (Homo sapiens, T-24, 48 h); 24.2 µM in the assay on LNCaP cells (Homo sapiens); 5.22 µM with HaCaT cells.
Taken in the same sequence, the figures for `CC(C)(C)Nc1c(-c2cccc(Oc3no[n+]([O-])c3S(=O)(=O)c3ccccc3)c2)nc2cnccn12` [12d, 4-(3-(3-(tert-butylamino)imidazo[1,2-a]pyrazin-2-yl)phenoxy)-3-(phenylsulfonyl)-1,2,5-oxadiazole 2-oxide] were 2720 nM, 8.13 µM and 9.84 µM.
`CC(C)(C)Nc1c(-c2cccc(Oc3no[n+]([O-])c3S(=O)(=O)c3ccccc3)c2)nc2sccn12` [12e, 4-(3-(5-(tert-butylamino)imidazo[2,1-b]thiazol-6-yl)phenoxy)-3-(phenylsulfonyl)-1,2,5-oxadiazole 2-oxide]: in the assay on T24 cells (48 h), the “GI50 T24” value is reported as “sub-micromolar range”. In addition, the GI50 amounted to 830 nM with T24 cells (Homo sapiens, T-24, 48 h); 16.5 µM in the assay with LNCaP cells (Homo sapiens); 9.01 µM with HaCaT cells.
Consider `N.N.[Cl][Pt][Cl]` [Cisplatin, cisplatin, reference compound], for which the GI50 is 3280 nM in the assay on T24 cells (48 h), 20.3 µM with LNCaP cells and 2.51 µM in the assay with HaCaT cells.
In the case of `O=C(O)c1cccc(Oc2no[n+]([O-])c2S(=O)(=O)c2ccccc2)c1` [compound 3, reference compound], the GI50 came out at 8600 nM in the assay on T24 cells (Homo sapiens, T-24, 48 h); 32.5 µM in the assay on LNCaP cells (Homo sapiens); 14.4 µM in the assay with HaCaT cells.
As to `CC(C)(C)Nc1c(-c2cccc(O)c2)nc2ccccn12` [compound 10, N-tert-Butyl-2-(3-hydroxyphenyl)imidazo[1,2-a]pyridin-3-amine], the GI50 with T24 cells (Homo sapiens, T-24, 48 h) was greater than 100000 nM; in the assay on LNCaP cells (Homo sapiens), greater than 100 µM.

For the origin of these results see publication PMC8955377, “Greener Synthesis of Antiproliferative Furoxans via Multicomponent Reactions” (Molecules, 2022).
